# Marks after values point to notes of the source that are not given here.
# How the values were obtained:
# [1] = system: Wt and RKIP-tg mice; experiment: Left ventricular catheterization with esmolol infusion; format: in vivo, mouse
# Experimental: For left ventricular pressure measurements we inserted a 1.4F pressure catheter (Millar Instruments) into the right carotid artery and advanced it to the left ventricular chamber. During measurement we injected esmolol (12 μg/min for 1 min) or dobutamine (in increasing doses: 75, 150, 375, 750 and 1500 ng/min) into the V. jugularis. We analyzed data using the Chart software (Chart5.4, AD Instruments) as previously described^60. We excluded mice with heart rates below 450 bpm (or below 430 bpm in the case of β1KO or RKIP-tg/β1KO mice).
# [2] = system: RyR2, PLN and TnI phosphorylation; experiment: Isoproterenol infusion with or without ICI 118,551, immunoblot of heart lysates; format: in vivo, mouse
# Text: Immunoblot quantification of (a) pPLN(S16), (b) pTnI (SS23/24), (c) pRyR2(S2808) and pRyR2(S2814) in heart lysates of untreated (Con) and isoproterenol-treated mice and mice treated with Iso in combination with ICI 118,551. pPLN(S16), n=13; pTnI(SS23/24), n=11; pRyR2(S2808), n=12; n are mice per group; mean±SEM; *, p<0.05 vs. Con. Immunoblot analysis of Con vs. Iso for RyR2 phosphorylation (pRyR2[S2808] and pRyR2[S2814]) show significant differences when a t-test analysis is applied (#, p<0.05 vs. Con).
# We intravenously infused isoproterenol (1.1 μg/min for 2 min) with or without ICI 118,551 (0.14 μg/min for 2 min) via the V. jugularis as indicated. We pretreated mice with pertussis toxin (PTX; 300 μg/kg body weight; i.p) for 24 h as indicated. Mice were sacrificed and hearts were used for Western blot analyses. Efficiency of Gαi inhibition by PTX was evaluated by in vitro PTX-catalyzed ADP ribosylation in the presence of [^32P]-nicotinamide adenine dinucleotide ([^32P]NAD). […] After filtration through a 200 μm-mesh, we determined the protein content of the tissue homogenate and then incubated 30 μg of protein with 0.1 μM [^32P]NAD (800 Ci/mmol) in a buffer containing 20 mM Tris-HCl (pH7.6), 15 mM thymidine, 1 mM EDTA, 1 mM ATP, 0.1 mM GDP and 1 μg of PTX (preactivated) for 1 h at 30° C. […] Proteins were separated on SDS-PAGE and incorporated [^32P] was assessed by Phospholmager analysis. […]
# [3] = system: Wt mice; experiment: Chronic isoproterenol infusion via osmotic minipumps in Wt mice (echocardiography, interstitial fibrosis); format: in vivo, mouse; details: mean ± SEM
# Experimental: (§1) Echocardiographic measurements and histological analysis of interstitial fibrosis of wild-type (Wt) and RKIP transgenic (RKIP-tg) mice before and after 4 weeks of isoproterenol application via osmotic minipumps (Iso; 30 mg/kg/d). Shown are measurements of wall thicknesses (interventricular septal [IVS] and left ventricular posterior wall [LVPW]), left ventricular internal dimension (LVID), fractional shortening (FS), ejection fraction (EF), heart rates and the quantification of interstitial fibrosis (arbitrary units) of Sirius Red-stained left ventricular myocyrdial sections. Values represent mean (±SEM); *, p<0.05 vs. Con; #, p<0.05 vs. Wt Iso; $, p<0.05 vs. Wt Con. n represent the number of mice (for the analysis of interstitial fibrosis one transverse section was analyzed per mouse).
# (§2) Osmotic minipumps (Alzet, model 1004) were implanted subcutaneously in male 8-week old Wt and RKIP-tg mice (C57/BL/6J background). The implanted pumps continuously released isoproterenol for 4 weeks (30 mg/kg body weight/day).
# (§3) We performed transthoracic echocardiograms in a blinded manner using the Vevo700 or Vevo2100 high-resolution imaging systems (VisualSonics) and a 30-MHz probe. We obtained values for end-diastolic septal and posterior wall thicknesses as well as end-diastolic and -systolic internal diameters from 2D M-mode images in the short axis view at the proximal level of the papillary muscles. We obtained peak blood flow velocities at the site of TAC [Vmax (millimetres per second)] from pulsed-waved Doppler measurements. We calculated fractional shortening (FS), ejection fraction (EF), and aortic pressure gradients (mmHg) by VisualSonics Cardiac Measurements software. The shown data represent averages of at least six cardiac cycles per animal. We excluded mice with heart rates below 450 bpm (or below 430 bpm in the case of β1KO or RKIP-tg/(β1KO mice).
# (§4) After fixation of hearts in 4% (m/v) paraformaldehyde, hearts were embedded in paraffin. Sections (2 μm) were stained with haematoxylin and eosin or with Sirius Red as described previously^60. For quantification of fibrosis, we stained left ventricular sections with Sirius Red and subsequently analyzed […] by semi-automated image analyses in blinded manner. For immunostaining, we used Vectastain Elite ABC Reagent with biotinylated goat-anti-rabbit IgG in combination with diaminobenzidine (DAB) and glucose oxidase (Sigma) similarly as described previously^60,61. We counterstained nuclei with haematoxylin.
# [4] = system: RKIP-tg mice; experiment: Chronic isoproterenol infusion via osmotic minipumps in RKIP-tg mice (echocardiography, interstitial fibrosis); format: in vivo, mouse; details: mean ± SEM
# Experimental: as §1, §2, §3, §4
# [5] = system: RKIP; experiment: RKIP expression in neonatal rat cardiomyocytes (Western blot); format: cell-based; details: NRCM, 75 μg/ml, 30 h
# Experimental: 500 000 NRCM/Well were plated in 12 Well plates, cultured for 24 h and subsequently treated with the indicated compounds for 30 h inkubiert. Cells were lysed, Western blots performed and signals were quantified using ImageJ (n=11). Shown are SEM; *. p=0.0003
# We homogenized left ventricular tissue or cells in lysis buffer (1% [v/v] Triton-X-100, 5 mM EDTA, 300 mM NaCl, 50 mM Tris [pH7.4], supplemented with protease and phosphatase inhibitors). We removed cell debris by centrifugation (10 min, 1000×g, 4° C.) and used lysates for Western blot analysis: We determined protein concentrations and used equal amounts of protein for immunoblot analysis. We separated proteins by SDS-PAGE and transferred them to PVDF membranes. We blocked membranes for 1 h with 5% (w/v) fat-free milk dissolved in 10 mM Tris (pH7.6), 100 mM NaCl and 0.1% (v/v) Tween-20, incubated membranes with primary antibodies overnight at 4° C., thereafter with secondary antibodies conjugated with horseradish peroxidase (HRP) and used the Pierce™ ECL Plus Western blotting kit for detection. To average our immunoblot experiments and to present semi-quantitative results, we quantified immunoblot signals using ImageJ.
# For the detection of RKIP phosphorylation (“activation as GRK2 inhibitor”), we used antibodies directed againt Ser153-phosphorylation of RKIP (pRKIP[hSer153], sc-32623, Santa Cruz Biotechnology; pRKIP [rSer153], sc-32622, Santa Cruz Biotechnology). For RKIP expression levels we used antibodies directed against RKIP (RKIP, sc5422, Santa Cruz Biotechnology; RKIP antibodies raised against recombinant GST-RKIP as antigen (Lorenz et al., 2003).
# We tested an anti-CD20 antibody (such as rituximab) and an anti-VEGF antibody (such as bevacizumab) and several other therapeutic antibodies (obtained from the hospital pharmacy, Uniklinik Wiirzburg) on RKIP expression and RKIP activation (Ser153 phosphorylation) in neonatal rat cardiomyocytes as well as cardiomyocyte contractility.
# [6] = system: RKIP; experiment: RKIP activation (Ser153 phosphorylation, pRKIP) in neonatal rat cardiomyocytes (Western blot); format: cell-based; details: NRCM, 25 and 75 μg/ml, 30 h
# Experimental: NRCM were treated with rituximab (25 μg u. 75 μg/ml) or bevacizumab (25 μg u. 75 μg/ml) for 30 h and Western blot analysis performed. Gβ was used as loading control.
# NRCM were treated with rituximab (25 μg u. 75 μg/ml) for 30 h and Western blot analysis and quantification using ImageJ was performed. Gβ was used as loading control. SEM, n=3, *, p=0.0004
# NRCM were treated with rituximab (25 μg u. 75 μg/ml) for 30 h and Western blot analysis and quantification using ImageJ was performed. Gβ was used as loading control. SEM, n=4, *, p=0.0004
# We homogenized left ventricular tissue or cells in lysis buffer (1% [v/v] Triton-X-100, 5 mM EDTA, 300 mM NaCl, 50 mM Tris [pH7.4], supplemented with protease and phosphatase inhibitors). We removed cell debris by centrifugation (10 min, 1000×g, 4° C.) and used lysates for Western blot analysis: We determined protein concentrations and used equal amounts of protein for immunoblot analysis. We separated proteins by SDS-PAGE and transferred them to PVDF membranes. […] To average our immunoblot experiments and to present semi-quantitative results, we quantified immunoblot signals using ImageJ. […]
# [7] = system: neonatal rat cardiomyocytes (NRCM); experiment: Contractile activity of neonatal rat cardiomyocytes; format: cell-based; details: in the presence of isoprenaline (50 nM), 33° C., beats per minute
# Experimental: NRCM were cultured for 24 h and transduced as indicated with a control virus (LacZ) or a virus encoding RKIP-wt and/or treated with rituximab as indicated. The spontaneous contractions were measured at 33° C. for one minute and normalized for each experiment to LacZ under unstimulated conditions. NRCM were then stimulated with isoproterenol (50 nM) and after 2 min contractions were counted again. SEM; *, p<0.0001, n=5
# Neonatal rat cardiomyocytes were isolated as described (Lorenz et al. Nature 2003, 426:574-579; Vidal et al., Cardiovasc. Res. 2012, 96:255-264). Cardiomyocytes were transduced by adenoviruses or treated with indicated antibodies. To monitor the contractile activity of cardiomyocytes, live cells were examined on a Zeiss Axiovert 135 microscope.
# [8] = 4 weeks isoproterenol 30 mg/kg/d via osmotic minipumps
# [9] = 4 weeks isoproterenol 30 mg/kg/d, Sirius Red-stained left ventricular sections
molecule,measurement,setting,value
"COC(=O)CCc1ccc(OCC(O)CNC(C)C)cc1 (stereo not drawn) [Esmolol, esmolol]","rates of contraction and relaxation (dP/dtmax, dP/dtmin)","[1]; esmolol 12 μg/min for 1 min, RKIP-tg mice",largely attenuated increased rates of contraction and relaxation
same,heart rates,"[1]; esmolol 12 μg/min for 1 min into V. jugularis, Wt and RKIP-tg mice",effectively reduced heart rates
"Cc1ccc(OCC(O)C(C)NC(C)C)c2c1CCC2 (stereo not drawn) [ICI 118,551]",RyR2(S2808/S2814) phosphorylation,"[2]; isoproterenol plus ICI 118,551 (0.14 μg/min for 2 min i.v.) vs. isoproterenol alone",much stronger phosphorylation of RyR2
same,PLN and TnI phosphorylation,"[2]; isoproterenol plus ICI 118,551 vs. isoproterenol alone",hardly affected PLN and TnI phosphorylation
"CC(C)NCC(O)c1ccc(O)c(O)c1 (stereo not drawn) [Iso, isoproterenol]",EF,[3]; [8],73.0 ± 2.52^$ %
same,FS,[3]; [8],41.6 ± 2.00^$ % of LVID
same,Heart rate,[3]; [8],654 ± 25* bpm
same,"IVS, end-diastolic",[3]; [8],0.74 ± 0.039* mm
same,"LVID, end-diastolic",[3]; [8],3.69 ± 0.172 mm
same,"LVPW, end-diastolic",[3]; [8],0.76 ± 0.036* mm
same,Interstitial fibrosis,[3]; [9],2.05 ± 0.336* arbitrary units
same,EF,[4]; [8],87.1 ± 1.64*^# %
same,FS,[4]; [8],55.9 ± 1.98*^# % of LVID
same,Heart rate,[4]; [8],668 ± 21* bpm
same,"IVS, end-diastolic",[4]; [8],0.81 ± 0.026* mm
same,"LVID, end-diastolic",[4]; [8],3.08 ± 0.086 mm
same,"LVPW, end-diastolic",[4]; [8],0.84 ± 0.022* mm
same,Interstitial fibrosis,[4]; [9],1.05 ± 0.263*^# arbitrary units
"bevacizumab: anti-VEGF antibody, recombinant humanized monoclonal IgG1",RKIP expression,[5],most up-regulation of RKIP expression
same,"""active"" RKIP (Ser153-phosphorylation)",[6],increased
panitumumab: anti-EGFR antibody,RKIP expression,[5],up-regulation of RKIP expression
rituximab: anti-CD20 antibody,RKIP expression,[5],even more prominent up-regulation of RKIP
same,NRCM contractility,[7],increased NRCM contractility
same,"""active"" RKIP (Ser153-phosphorylation)",[6],increased

# — US20180179292A1, “RKIP AGONISM IN THE TREATMENT AND PREVENTION OF HEART FAILURE” (Leibniz-Institut für analytische Wissenschaften- ISAS-e.V., priority 2015, published 2018)
